Residues, ends and D or L forms follow the SMILES beside them.
Legend:
[1] = target: T1, Receptor activity-modifying protein 1 (Sus scrofa, UniProt Q867C0)
T1 sequence (Q867C0 whole entry): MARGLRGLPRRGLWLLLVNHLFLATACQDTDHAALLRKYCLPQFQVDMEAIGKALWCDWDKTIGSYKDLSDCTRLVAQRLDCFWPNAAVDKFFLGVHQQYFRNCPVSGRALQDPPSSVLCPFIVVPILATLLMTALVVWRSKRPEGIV

[2] = target: Calcitonin gene-related peptide type 1 receptor (Sus scrofa, UniProt Q8WN93)
Chain of Calcitonin gene-related peptide type 1 receptor (Q8WN93 whole entry): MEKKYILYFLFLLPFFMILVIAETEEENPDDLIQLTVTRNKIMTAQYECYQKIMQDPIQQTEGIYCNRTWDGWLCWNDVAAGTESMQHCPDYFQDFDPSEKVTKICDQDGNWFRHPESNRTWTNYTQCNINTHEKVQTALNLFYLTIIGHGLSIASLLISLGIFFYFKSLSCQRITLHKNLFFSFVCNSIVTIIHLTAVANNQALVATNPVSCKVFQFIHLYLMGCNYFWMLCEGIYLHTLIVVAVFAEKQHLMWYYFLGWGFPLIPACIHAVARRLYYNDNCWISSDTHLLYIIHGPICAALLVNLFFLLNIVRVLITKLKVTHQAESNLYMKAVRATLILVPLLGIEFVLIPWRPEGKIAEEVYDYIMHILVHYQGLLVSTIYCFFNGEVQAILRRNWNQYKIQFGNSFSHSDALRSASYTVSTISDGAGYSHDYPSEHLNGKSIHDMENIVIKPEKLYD

Row | SMILES | Ki [1] | Ki [2]
1 | CC(C)C[C@H](NC(=O)CNC(=O)[C@H](C)NC(=O)[C@H](CC(C)C)NC(=O)[C@H](CCCN=C(N)N)NC(=O)[C@H](Cc1cnc[nH]1)NC(=O)[C@@H](NC(=O)[C@@H](N)C(C)C)[C@@H](C)O)C(=O)N[C@@H](CC(C)C)C(=O)N[C@@H](CO)C(=O)N[C@@H](CCCN=C(N)N)C(=O)N[C@@H](CO)C(=O)NCC(=O)NCC(=O)N[C@H](C(=O)N[C@H](C(=O)N[C@@H](CCCCN)C(=O)N[C@@H](CC(N)=O)C(=O)N[C@@H](CC(N)=O)C(=O)N[C@@H](Cc1ccccc1)C(=O)N[C@H](C(=O)N1CCC[C@H]1C(=O)N[C@H](C(=O)N[C@@H](CC(N)=O)C(=O)N[C@H](C(=O)NCC(=O)N[C@@H](CO)C(=O)N[C@@H](CCCCN)C(=O)N[C@@H](C)C(=O)N[C@@H](C)C(N)=O)C(C)C)[C@@H](C)O)C(C)C)C(C)C)C(C)C [[Ala37]h alpha-CGRP8-37] (H-VTHRLAGLLSRSGGVVKNNFVPTNVGSKAA-NH2) | 1020 nM | 500 nM
2 | CC(C)C[C@H](NC(=O)CNC(=O)[C@H](C)NC(=O)[C@H](CC(C)C)NC(=O)[C@H](CCCN=C(N)N)NC(=O)[C@H](Cc1cnc[nH]1)NC(=O)[C@@H](NC(=O)[C@@H](N)C(C)C)[C@@H](C)O)C(=O)N[C@@H](CC(C)C)C(=O)N[C@@H](CO)C(=O)N[C@@H](CCCN=C(N)N)C(=O)N[C@@H](CO)C(=O)NCC(=O)NCC(=O)N[C@H](C(=O)N[C@H](C(=O)N[C@@H](CCCCN)C(=O)N[C@@H](CC(N)=O)C(=O)N[C@@H](CC(N)=O)C(=O)N[C@@H](Cc1ccccc1)C(=O)N[C@H](C(=O)N1CCC[C@H]1C(=O)N[C@H](C(=O)N[C@@H](CC(N)=O)C(=O)N[C@H](C(=O)NCC(=O)N[C@@H](CO)C(=O)N[C@@H](CCCCN)C(=O)N[C@@H](C)C(=O)N[C@@H](CC1CCCCC1)C(N)=O)C(C)C)[C@@H](C)O)C(C)C)C(C)C)C(C)C [[Cha37]h alpha-CGRP8-37] (HELM PEPTIDE1{V.T.H.R.L.A.G.L.L.S.R.S.G.G.V.V.K.N.N.F.V.P.T.N.V.G.S.K.A.[Cha].[am]}$$$$V2.0) | 37.9 nM | 32.7 nM
3 | CC(=O)NCSC[C@H](NC(=O)[C@H](C)N)C(=O)N[C@@H](CC(=O)O)C(=O)N[C@H](C(=O)N[C@@H](C)C(=O)N[C@H](C(=O)N[C@@H](CSCNC(C)=O)C(=O)N[C@H](C(=O)N[C@H](C(=O)N[C@@H](Cc1cnc[nH]1)C(=O)N[C@@H](CCCNC(=N)N)C(=O)N[C@@H](CC(C)C)C(=O)N[C@@H](C)C(=O)NCC(=O)N[C@@H](CC(C)C)C(=O)N[C@@H](CC(C)C)C(=O)N[C@@H](CO)C(=O)N[C@@H](CCCNC(=N)N)C(=O)N[C@@H](CO)C(=O)NCC(=O)NCC(=O)N[C@H](C(=O)N[C@H](C(=O)N[C@@H](CCCCN)C(=O)N[C@@H](CC(N)=O)C(=O)N[C@@H](CC(N)=O)C(=O)N[C@@H](Cc1ccccc1)C(=O)N[C@H](C(=O)N1CCC[C@H]1C(=O)N[C@H](C(=O)N[C@@H](CC(N)=O)C(=O)N[C@H](C(=O)NCC(=O)N[C@@H](CO)C(=O)N[C@@H](CCCCN)C(=O)N[C@@H](C)C(=O)N[C@@H](Cc1ccccc1)C(N)=O)C(C)C)[C@@H](C)O)C(C)C)C(C)C)C(C)C)[C@@H](C)O)C(C)C)[C@@H](C)O)[C@@H](C)O [[Cys(ACM)2,7]h alpha-CGRP] | 32 nM | 38.4 nM
4 | CC(=O)N[C@H](C(=O)N[C@H](C(=O)N[C@@H](Cc1cnc[nH]1)C(=O)N[C@@H](CCCN=C(N)N)C(=O)N[C@@H](CC(C)C)C(=O)N[C@@H](C)C(=O)NCC(=O)N[C@@H](CC(C)C)C(=O)N[C@@H](CC(C)C)C(=O)N[C@@H](CO)C(=O)N[C@@H](CCCN=C(N)N)C(=O)N[C@@H](CO)C(=O)NCC(=O)NCC(=O)N[C@H](C(=O)N[C@H](C(=O)N[C@@H](CCCCN)C(=O)N[C@@H](CC(N)=O)C(=O)N[C@@H](CC(N)=O)C(=O)N[C@@H](Cc1ccccc1)C(=O)N[C@H](C(=O)N1CCC[C@H]1C(=O)N[C@H](C(=O)N[C@@H](CC(N)=O)C(=O)N[C@H](C(=O)NCC(=O)N[C@@H](CO)C(=O)N[C@@H](CCCCN)C(=O)N[C@@H](C)C(=O)N[C@@H](Cc1ccccc1)C(N)=O)C(C)C)[C@@H](C)O)C(C)C)C(C)C)C(C)C)[C@@H](C)O)C(C)C [[N-acetyl]h alpha-CGRP8-37] | 1.3 nM | –
5 | CC(C)C[C@H](NC(=O)CNC(=O)[C@H](C)NC(=O)[C@H](CC(C)C)NC(=O)[C@H](CCCN=C(N)N)NC(=O)[C@H](Cc1cnc[nH]1)NC(=O)[C@@H](NC(=O)[C@@H](NCc1ccc(O)cc1)C(C)C)[C@@H](C)O)C(=O)N[C@@H](CC(C)C)C(=O)N[C@@H](CO)C(=O)N[C@@H](CCCN=C(N)N)C(=O)N[C@@H](CO)C(=O)NCC(=O)NCC(=O)N[C@H](C(=O)N[C@H](C(=O)N[C@@H](CCCCN)C(=O)N[C@@H](CC(N)=O)C(=O)N[C@@H](CC(N)=O)C(=O)N[C@@H](Cc1ccccc1)C(=O)N[C@H](C(=O)N1CCC[C@H]1C(=O)N[C@H](C(=O)N[C@@H](CC(N)=O)C(=O)N[C@H](C(=O)NCC(=O)N[C@@H](CO)C(=O)N[C@@H](CCCCN)C(=O)N[C@@H](C)C(=O)N[C@@H](Cc1ccccc1)C(N)=O)C(C)C)[C@@H](C)O)C(C)C)C(C)C)C(C)C [[N-benzol]h alpha-CGRP8-37] | 0.072 nM | 0.27 nM
6 | CC(C)[C@H](NC(=O)[C@H](CC(N)=O)NC(=O)[C@@H](NC(=O)[C@@H]1CCCN1C(=O)[C@@H](NC(=O)[C@@H](N)Cc1ccccc1)C(C)C)[C@@H](C)O)C(=O)NCC(=O)N1CCC[C@H]1C(=O)N[C@@H](Cc1ccccc1)C(=O)N[C@@H](C)C(=O)N[C@@H](Cc1ccccc1)C(N)=O [[Pro34,Phe35]h alpha-CGRP27-37] (H-FVPTNVGPFAF-NH2) | 118 nM | 50.7 nM

Next, values leading:

Row | Ki [1] | Ki [2] | SMILES
7 | 5.7 nM | – | CC(C)C[C@H](NC(=O)CNC(=O)[C@H](C)NC(=O)[C@H](CC(C)C)NC(=O)[C@H](CCCNC(=N)N)NC(=O)[C@H](Cc1cnc[nH]1)NC(=O)[C@@H](NC(=O)[C@@H](N)C(C)C)[C@@H](C)O)C(=O)N[C@@H](CC(C)C)C(=O)N[C@@H](CO)C(=O)N[C@@H](CCCNC(=N)N)C(=O)N[C@@H](CO)C(=O)NCC(=O)NCC(=O)N[C@H](C(=O)N[C@H](C(=O)N[C@@H](CCCCN)C(=O)N[C@@H](CC(N)=O)C(=O)N[C@@H](CC(N)=O)C(=O)N[C@@H](Cc1ccccc1)C(=O)N[C@H](C(=O)N1CCC[C@H]1C(=O)N[C@H](C(=O)N[C@@H](CC(N)=O)C(=O)N[C@H](C(=O)NCC(=O)N[C@@H](CO)C(=O)N[C@@H](CCCCN)C(=O)N[C@@H](C)C(=O)N[C@@H](Cc1ccccc1)C(N)=O)C(C)C)[C@@H](C)O)C(C)C)C(C)C)C(C)C
8 | 15.2 nM | 21 nM | CC(C)C[C@H](NC(=O)CNC(=O)[C@H](C)NC(=O)[C@H](CC(C)C)NC(=O)[C@H](CCCNC(=N)N)NC(=O)[C@H](Cc1cnc[nH]1)NC(=O)[C@@H](NC(=O)[C@@H](NC(=O)[C@@H]1NC(=O)[C@H]([C@@H](C)O)NC(=O)[C@H](C)NC(=O)[C@H]([C@@H](C)O)NC(=O)[C@H](CC(=O)O)NC(=O)[C@H](NC(=O)[C@H](C)N)C(C)(C)SSC1(C)C)C(C)C)[C@@H](C)O)C(=O)N[C@@H](CC(C)C)C(=O)N[C@@H](CO)C(=O)N[C@@H](CCCNC(=N)N)C(=O)N[C@@H](CO)C(=O)NCC(=O)NCC(=O)N[C@H](C(=O)N[C@H](C(=O)N[C@@H](CCCCN)C(=O)N[C@@H](CC(N)=O)C(=O)N[C@@H](CC(N)=O)C(=O)N[C@@H](Cc1ccccc1)C(=O)N[C@H](C(=O)N1CCC[C@H]1C(=O)N[C@H](C(=O)N[C@@H](CC(N)=O)C(=O)N[C@H](C(=O)NCC(=O)N[C@@H](CO)C(=O)N[C@@H](CCCCN)C(=O)N[C@@H](C)C(=O)N[C@@H](Cc1ccccc1)C(N)=O)C(C)C)[C@@H](C)O)C(C)C)C(C)C)C(C)C [[D-Pen2,7]h alpha-CGRP]
9 | 5.5 nM | 9 nM | CC(C)C[C@H](NC(=O)[C@H](CCCNC(=N)N)NC(=O)[C@H](Cc1cnc[nH]1)NC(=O)[C@@H](NC(=O)[C@@H](NC(=O)[C@@H]1CSSC[C@H](NC(=O)[C@H](C)N)C(=O)N[C@@H](CC(=O)O)C(=O)N[C@@H]([C@@H](C)O)C(=O)N[C@@H](C)C(=O)N[C@@H]([C@@H](C)O)C(=O)N1)C(C)C)[C@@H](C)O)C(=O)N[C@@H](C)C(=O)N1CCC[C@H]1C(=O)N[C@@H](CC(C)C)C(=O)N[C@@H](CC(C)C)C(=O)N[C@@H](CO)C(=O)N[C@@H](CCCNC(=N)N)C(=O)N[C@@H](CO)C(=O)NCC(=O)NCC(=O)N[C@H](C(=O)N[C@H](C(=O)N[C@@H](CCCCN)C(=O)N[C@@H](CC(N)=O)C(=O)N[C@@H](CC(N)=O)C(=O)N[C@@H](Cc1ccccc1)C(=O)N[C@H](C(=O)N1CCC[C@H]1C(=O)N[C@H](C(=O)N[C@@H](CC(N)=O)C(=O)N[C@H](C(=O)NCC(=O)N[C@@H](CO)C(=O)N[C@@H](CCCCN)C(=O)N[C@@H](C)C(=O)N[C@@H](Cc1ccccc1)C(N)=O)C(C)C)[C@@H](C)O)C(C)C)C(C)C)C(C)C [[Pro14]h alpha-CGRP] (HELM PEPTIDE1{A.C.D.T.A.T.C.V.T.H.R.L.A.P.L.L.S.R.S.G.G.V.V.K.N.N.F.V.P.T.N.V.G.S.K.A.F.[am]}$PEPTIDE1,PEPTIDE1,2:R3-7:R3$$$V2.0)
10 | 0.08 nM | – | CC(C)C[C@H](NC(=O)CNC(=O)[C@H](C)NC(=O)[C@H](CC(C)C)NC(=O)[C@H](CCCNC(=N)N)NC(=O)[C@H](Cc1cnc[nH]1)NC(=O)[C@@H](NC(=O)[C@@H](NC(=O)[C@@H]1CSSC[C@H](NC(=O)[C@H](C)N)C(=O)N[C@@H](CC(=O)O)C(=O)N[C@@H]([C@@H](C)O)C(=O)N[C@@H](C)C(=O)N[C@@H]([C@@H](C)O)C(=O)N1)C(C)C)[C@@H](C)O)C(=O)N[C@@H](CC(C)C)C(=O)N[C@@H](CO)C(=O)N[C@@H](CCCNC(=N)N)C(=O)N[C@@H](CO)C(=O)NCC(=O)NCC(=O)N[C@H](C(=O)N[C@H](C(=O)N[C@@H](CCCCN)C(=O)N[C@@H](CC(N)=O)C(=O)N[C@@H](CC(N)=O)C(=O)N[C@@H](Cc1ccccc1)C(=O)N[C@H](C(=O)N1CCC[C@H]1C(=O)N[C@H](C(=O)N[C@@H](CC(N)=O)C(=O)N[C@H](C(=O)NCC(=O)N[C@@H](CO)C(=O)N[C@@H](CCCCN)C(=O)N[C@@H](C)C(=O)N[C@@H](Cc1ccccc1)C(N)=O)C(C)C)[C@@H](C)O)C(C)C)C(C)C)C(C)C [h alpha-CGRP]
